# Data as given in the PolyMetriX glass transition set.
# ± gives the standard deviation of the reports.
row,SMILES,glass transition temperature
1,*OC(=O)C(C)NC(=O)CCCCC(=O)NC(C)C(=O)OC1COC2C(*)COC12 (repeat unit),56.00 °C
2,*c1ccc(Oc2ccc(-c3ccc(Oc4ccc(N5C(=O)c6ccc(Oc7ccc(Sc8ccc(Oc9ccc%10c(c9)C(=O)N(*)C%10=O)cc8)cc7)cc6C5=O)cc4)cc3)cc2)cc1 (repeat unit),205.00 °C
3,*CC(*)CC[Si](C)(C)C (repeat unit),132.00 °C
4,*Oc1ccc(S(=O)(=O)c2ccc3ccc(S(=O)(=O)c4ccc(*)cc4)cc3c2)cc1 (repeat unit),250.00 °C
5,*C(F)(F)C1(F)C(F)(F)C(*)(F)C(F)(F)C(F)(F)C1(F)F (repeat unit),101.00 °C
6,*Oc1ccc(C(CC)(c2ccccc2)c2ccc(OC(=O)CCCCCCCCC(*)=O)cc2)cc1 (repeat unit),88.00 °C
7,*CCN(CCOC(=O)c1ccc([Si](C)(C)c2ccc(C(=O)O*)cc2)cc1)c1ccc(/C=C/c2ccc([N+](=O)[O-])cc2)cc1 (repeat unit),127.00 °C
8,*c1ccc(Oc2ccc(C(c3ccccc3)(c3ccccc3)c3ccc(Oc4ccc(-c5nc(*)nc(-c6ccccc6)n5)cc4)cc3)cc2)cc1 (repeat unit),261.00 °C
9,*CCCCCCOC(=O)C(Cc1ccccc1)NC(=O)/C=C/C(=O)NC(Cc1ccccc1)C(=O)O* (repeat unit),92.00 °C
10,*Oc1ccc2cc(Oc3ccc4c(=O)n5c6cc(-c7ccc8c(c7)nc7c9ccc(*)c%10cccc(c(=O)n87)c%109)ccc6nc5c5cccc3c45)ccc2c1 (repeat unit),413.00 °C
11,*Oc1ccc(/N=C/C=N/c2ccc(OC(=O)Nc3cc(NC(*)=O)ccc3C)cc2)cc1 (repeat unit),76.00 °C
12,*OC(=O)c1ccc(C(F)(F)C(F)(F)C(F)(F)c2ccc(C(*)=O)cc2)cc1 (repeat unit),98.00 °C
13,*Oc1ccc(C(c2ccc(OC(*)=S)cc2)C(CC)CC)cc1 (repeat unit),148.00 °C
14,*c1ccc2c(c1)C(=O)N(c1c(C)cc(C(c3cc(C)c(N4C(=O)c5ccc(C(*)(C(F)(F)F)C(F)(F)F)cc5C4=O)c(C)c3)c3cccc4ccccc34)cc1C)C2=O (repeat unit),314.00 °C
15,*CCCCCCCCCCCC(=O)N(*)C (repeat unit),-29.00 °C
16,*/C=C/C(*)(C)c1ccccc1 (repeat unit),52.00 °C
17,*CC(*)c1ccc(COC)cc1 (repeat unit) [Poly(p-methoxymethyl styrene)],77 ± 0.6 °C
18,*NNC(=O)c1ccc(C(*)=O)cc1OCCCCCCCC (repeat unit),203.50 °C
19,*C(=O)Nc1ccc(Oc2ccccc2-c2ccccc2Oc2ccc(NC(=O)c3ccc4c(c3)C(=O)N(c3ccc(Oc5ccc(S(=O)(=O)c6ccc(Oc7ccc(N8C(=O)c9ccc(*)cc9C8=O)cc7)cc6)cc5)cc3)C4=O)cc2)cc1 (repeat unit),236.00 °C
20,*c1cccc(P(=O)(c2ccc(C(F)(F)F)cc2)c2cccc(-n3c(=O)c4c(-c5cc(C(F)(F)F)cc(C(F)(F)F)c5)c5c(=O)n(*)c(=O)c5c(-c5cc(C(F)(F)F)cc(C(F)(F)F)c5)c4c3=O)c2)c1 (repeat unit),311.00 °C
21,*Oc1ccc(NC(=O)c2cc(C(=O)Nc3ccc(*)cc3)cc(C(F)(F)C(F)(F)C(F)(F)C(F)(F)F)c2)cc1 (repeat unit),257.00 °C
22,*CCCCCCOc1ccc(/C=C2\CC/C(=C\c3ccc(OCCCCCCOP(=O)(O*)OC)c(OC)c3)C2=O)cc1OC (repeat unit),74.00 °C
23,*CCNC(=O)c1ccc([Si](CCCC)(CCCC)c2ccc(C(=O)NCCN(*)c3ccc(/C=C/c4ccc([N+](=O)[O-])cc4)cc3)cc2)cc1 (repeat unit),115.00 °C
24,*C(=O)Nc1ccc(C(=O)Nc2ccc(NC(=O)c3ccc4[nH]c(-c5cccc(-c6nc7cc(*)ccc7[nH]6)c5)nc4c3)cc2)cc1 (repeat unit),322.00 °C

# Further lines, results first:
row,glass transition temperature,SMILES
1,254.00 °C,*CC(=O)Nc1ccc(Oc2c(F)c(F)c(Oc3ccc(NC(=O)c4ccc5c(c4)C(=O)N(*)C5=O)cc3)c(F)c2F)cc1 (repeat unit)
2,230.00 °C,*c1ccc(Oc2ccc(-c3ccc(Oc4ccc(N5C(=O)c6ccc(Oc7ccc8cc(Oc9ccc%10c(c9)C(=O)N(*)C%10=O)ccc8c7)cc6C5=O)cc4)cc3)cc2)cc1 (repeat unit)
3,105.00 °C,*CCOCCOCCN1C(=O)c2ccc(C(=O)Oc3ccc4cc(OC(=O)c5ccc6c(c5)C(=O)N(*)C6=O)ccc4c3)cc2C1=O (repeat unit)

# Remark: another data set of the same source
row,SMILES,glass transition temperature
1,*c1ccc2c(c1)C(=O)N(c1ccc(OCC(F)(F)C(F)(F)C(F)(F)F)c(N3C(=O)c4ccc(C(*)(C(F)(F)F)C(F)(F)F)cc4C3=O)c1)C2=O (repeat unit),266.00 °C
2,*c1ccc2c(c1)C(=O)N(c1ccc(-c3ccc(N4C(=O)c5ccc(C(*)(C(F)(F)F)C(F)(F)F)cc5C4=O)cc3-c3ccccc3C(F)(F)F)c(-c3ccccc3C(F)(F)F)c1)C2=O (repeat unit),289.00 °C
3,*C(=O)c1ccc2c(c1)C(=O)N(c1cc(N3C(=O)c4ccc(*)cc4C3=O)ccc1OCC(F)(F)C(F)(F)C(F)(F)C(F)(F)C(F)(F)C(F)(F)C(F)(F)C(F)(F)C(F)(F)C(F)(F)F)C2=O (repeat unit),194.00 °C
4,*c1ccc(Cc2ccc(-n3c(=O)c4cc5c(=O)n(*)c(=O)c5cc4c3=O)c(C)c2)cc1C (repeat unit),274.00 °C
5,*c1cccc2c1C(=O)N(c1ccc(Oc3ccc(N4C(=O)c5cccc(*)c5C4=O)cc3)cc1)C2=O (repeat unit),306.00 ± 26 °C
6,*Oc1cccc(Sc2ccc(Oc3cccc4c3C(=O)N(c3ccc(Oc5ccc(N6C(=O)c7cccc(*)c7C6=O)cc5)cc3)C4=O)cc2)c1 (repeat unit),234.00 °C
7,*Oc1cccc(Oc2ccc(Oc3cccc4c3C(=O)N(c3cccc(N5C(=O)c6cccc(*)c6C5=O)c3)C4=O)cc2)c1 (repeat unit),238.00 °C
8,*Oc1cccc(Sc2ccc(Oc3cccc4c3C(=O)N(c3cccc(N5C(=O)c6cccc(*)c6C5=O)c3)C4=O)cc2)c1 (repeat unit),231.00 °C
9,*Oc1c(F)c(F)c(Oc2c(F)c(F)c3c(c2F)C(=O)N(c2c(F)c(F)c(Sc4c(F)c(F)c(N5C(=O)c6c(F)c(*)c(F)c(F)c6C5=O)c(F)c4F)c(F)c2F)C3=O)c(F)c1F (repeat unit),278.00 °C
10,*c1ccc2c(c1)C(=O)N(c1c(F)cc(Oc3ccc(C(c4ccc(Oc5cc(F)c(N6C(=O)c7ccc(C(*)(C(F)(F)F)C(F)(F)F)cc7C6=O)c(F)c5)cc4)(C(F)(F)F)C(F)(F)F)cc3)cc1F)C2=O (repeat unit),224.00 °C

# Further lines, results first:
row,glass transition temperature,SMILES
1,221.00 °C,*C(=O)c1ccc2c(c1)C(=O)N(c1cccc(Oc3cccc(N4C(=O)c5ccc(*)cc5C4=O)c3)c1)C2=O (repeat unit)
2,248.00 °C,*Oc1cccc(C(=O)c2ccc(Oc3cccc4c3C(=O)N(c3cccc(N5C(=O)c6cccc(*)c6C5=O)c3)C4=O)cc2)c1 (repeat unit)
3,400.00 °C,*c1ccc(-c2ccc(N3C(=O)c4cc5c(cc4C3=O)C(c3ccccc3)(C(F)(F)F)c3cc4c(cc3O5)C(=O)N(*)C4=O)cc2C(F)(F)F)c(C(F)(F)F)c1 (repeat unit)
4,336.00 °C,*c1ccc2c(c1)C(=O)N(c1ccc(-c3ccc(N4C(=O)c5ccc(C(*)(C(F)(F)F)C(F)(F)F)cc5C4=O)cc3Cl)c(Cl)c1)C2=O (repeat unit)
5,297.00 °C,*c1ccc2c(c1)C(=O)N(c1ccc(Cc3ccc(N4C(=O)c5ccc(*)cc5C4=O)c(C)c3C)c(C)c1C)C2=O (repeat unit)
6,307.00 °C,*C(=O)c1ccc2c(c1)C(=O)N(c1ccc(S(=O)(=O)c3ccc(N4C(=O)c5ccc(*)cc5C4=O)cc3)cc1)C2=O (repeat unit)
7,259.00 °C,*C(=O)c1ccc2c(c1)C(=O)N(c1cccc(C(=O)c3ccccc3N3C(=O)c4ccc(*)cc4C3=O)c1)C2=O (repeat unit)
8,287.00 °C,*C(=O)c1ccc2c(c1)C(=O)N(c1ccc(Oc3ccccc3N3C(=O)c4ccc(*)cc4C3=O)cc1)C2=O (repeat unit)
9,290.00 °C,*C(=O)c1ccc2c(c1)C(=O)N(c1ccc(Cc3ccccc3N3C(=O)c4ccc(*)cc4C3=O)cc1)C2=O (repeat unit)
10,205.50 ± 2.1 °C,*Oc1ccc2c(c1)C(=O)N(c1cccc(Oc3ccc(C(=O)c4ccc(Oc5cccc(N6C(=O)c7cccc(*)c7C6=O)c5)cc4)cc3)c1)C2=O (repeat unit)
11,274.00 °C,*Oc1ccc2c(c1)C(=O)N(c1ccc(C(=O)c3ccc(N4C(=O)c5ccc(*)cc5C4=O)cc3)cc1)C2=O (repeat unit)
12,215.00 °C,*Oc1ccc(C(C)(C)c2ccc(Cc3ccc4c(c3)C(=O)N(c3cccc(N5C(=O)c6ccc(*)cc6C5=O)c3)C4=O)cc2)cc1 (repeat unit)
13,259.00 °C,*C(=O)c1ccc2c(c1)C(=O)N(c1cccc(Oc3ccccc3N3C(=O)c4ccc(*)cc4C3=O)c1)C2=O (repeat unit)
14,386.00 °C,*c1ccc(Oc2ccccc2N2C(=O)c3cc4c(cc3C2=O)C(=O)N(*)C4)cc1 (repeat unit)
15,238.00 ± 5.7 °C,*Sc1ccc2c(c1)C(=O)N(c1ccc(Oc3ccc(Oc4ccc(N5C(=O)c6cccc(*)c6C5=O)cc4)cc3)cc1)C2=O (repeat unit)
